From patent publication US20170158702A1, “MULTIVALENT RAS BINDING COMPOUNDS” (KYRAS THERAPEUTICS, INC., priority 2015, published 2017)
Structures can show the parent of a compound that is named as a salt.

Legend:
Type in all cases: cell-based
[1] = tested on: HT-29; experiment: Viability assay with HT-29; details: HT-29, viability assay per Example 57
Method: NCI-H460 (Epithelial lung tissue; carcinoma; large cell lung cancer) were cultured in RPMI Medium 1640 (Invitrogen-22400105) supplemented with 10% fetal bovine serum (FBS; Invitrogen-10099141). All the cell lines were maintained in a humidified incubator at 37° C. with 5% CO2. Cell culture media and supplements were purchased from Invitrogen, and tissue culture flasks were purchased from Corning, 96-well plates were purchased from Greiner. CellTiter-Glo Luminescent Cell Viability Assay kits were purchased from Promega (Promega-G7573), cells counter Vi-Cell was purchased from Beckman, D300e digital dispenser was purchased from Tecan, detection instrument Envision was purchased from PerkinElmer.
Paclitaxel was purchased from SELLECK, test compounds, such as any one of the compounds disclosed herein, attained solubility in DMSO and when diluted into culture media. DMSO, solutions containing the test compounds, and culture media were warmed to 37° C. or room temperature for the solution preparation and dilutions.
NCI-H460 Cell line were seeded in 96-well plates (1200/well) and allowed to adhere to overnight (100 uL/well), for drug treatments with 2 fold dilution, 9 dose points, triplicates or vehicle control, compound stock solutions were prepared in DMSO and use D300e digital dispenser to add compounds to the wells to give the indicated final drug concentrations. Final DMSO concentration was 0.5%. Cellular ATP concentrations were assessed by using the CellTiter-Glo Cell Viability Assay as per the manufacturer's instructions 72 h after compounds addition. Additional cells lines were assayed with any one of the compounds disclosed herein according to the procedures described for the viability assay with NCI-H460.
A viability assay with HT-29 (Colorectal adenocarcinoma) was performed with compounds listed in Table 18 according to the procedures described in Example 57.

[2] = tested on: NCI-H460; experiment: Viability assay with NCI-H460 (CellTiter-Glo cytotoxicity assay, 72 h); details: NCI-H460 cell line, 72 h after compounds addition
Procedure, shortened: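 NCI-H460 cells, RPMI 1640 + 10% FBS, seeded 1200/well and adhered overnight, then exposed to compounds at 9 points, 2-fold dilution, in triplicate, 0.5% DMSO final. Cellular ATP measured by CellTiter-Glo luminescence 72 h after addition.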

[3] = tested on: MIA PaCa-2; experiment: Viability assay with MIA PaCa-2; details: MIA PaCa-2, viability assay per Example 57
Procedure, shortened: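 MIA PaCa-2 cells were seeded at 1200/well, allowed to adhere overnight, then treated in triplicate with 9-point 2-fold compound dilutions at 0.5% final DMSO. Viability was measured as cellular ATP by CellTiter-Glo luminescence 72 h after compound addition.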

SMILES	EC50 [1]	EC50 [2]	EC50 [3]
NCCCn1cc(-c2ccc(OC(F)(F)F)cc2)c2cc(CN3CCC(Nc4cccc(Cl)c4)CC3)ccc21 [C214; Formic Acid]	≤ 5 µM	≤ 5 µM	≤ 5 µM
NCCCn1cc(-c2ccc(OC(F)(F)F)cc2)c2cc(CN3CCC(Oc4ccccc4Cl)CC3)ccc21 [C215; HCl]	≤ 5 µM	≤ 5 µM	≤ 5 µM
NCCCn1cc(-c2ccc(OC(F)(F)F)cc2)c2cc(CN3CCC(Oc4ccc(Cl)cc4)CC3)ccc21 [C216; HCl]	≤ 5 µM	≤ 5 µM	≤ 5 µM
FC(F)(F)Oc1ccc(-n2cc(C3CCNCC3)c3cc(CN4CCN(Cc5ccccc5Cl)CC4)ccc32)cc1 [C217; HCl]	≤ 5 µM	≤ 5 µM	≤ 5 µM
NCc1ccc(-n2cc(-c3ccc(OC(F)(F)F)cc3)c3cc(CN4CCN(Cc5ccccc5Cl)CC4)ccc32)cn1 [C218; Formic Acid]	≤ 5 µM	≤ 5 µM	≤ 5 µM
NCC(=O)NCc1ccc(-n2cc(-c3ccc(OC(F)(F)F)cc3)c3cc(CN4CCN(Cc5ccccc5Cl)CC4)ccc32)cn1 [C219; HCl]	≤ 5 µM	≤ 5 µM	≤ 5 µM
Nc1ccc(Cn2cc(-c3ccc(OC(F)(F)F)cc3)c3cc(CN4CCN(Cc5ccccc5Cl)CC4)ccc32)cc1 [C220; Formic Acid]	5 to 10 µM	5 to 10 µM	5 to 10 µM
NCCCn1cc(-c2ccc(OC(F)(F)F)cc2CN)c2cc(CN3CCC(Cc4ccccc4Cl)CC3)ccc21 [C221; HCl]	≤ 5 µM	≤ 5 µM	≤ 5 µM
COc1ccc(-c2cn(CCCN)c3ccc(CN4CCN(Cc5ccccc5Cl)CC4)cc23)c(CN)c1 [C222; HCl]	≤ 5 µM	≤ 5 µM	≤ 5 µM
Cc1ccc(-c2cn(CCCN)c3ccc(CN4CCN(Cc5ccccc5Cl)CC4)cc23)c(CN)c1 [C223; HCl]	≤ 5 µM	≤ 5 µM	≤ 5 µM
NCc1ccc(Cn2cc(-c3ccc(OC(F)(F)F)cc3)c3cc(CN4CCN(Cc5ccccc5Cl)CC4)ccc32)cn1 [C224; Formic Acid]	≤ 5 µM	≤ 5 µM	≤ 5 µM
FC(F)(F)Oc1ccc(-c2cn(C3CCNCC3)c3ccc(CN4CCC(Cc5ccccc5Cl)CC4)cc23)cc1 [C225; HCl]	≤ 5 µM	≤ 5 µM	≤ 5 µM
CCC1CCN(Cc2ccc3c(c2)c(-c2ccc(OC(F)(F)F)cc2)cn3CCCN)CC1 [C226; HCl]	≤ 5 µM	≤ 5 µM	≤ 5 µM
CCCCn1cc(-c2ccc(OC(F)(F)F)cc2CN)c2cc(CN3CCN(Cc4ccccc4Cl)CC3)ccc21 [C227; HCl]	≤ 5 µM	≤ 5 µM	≤ 5 µM
FC(F)(F)Oc1ccc(-c2cn(CC3CCNCC3)c3ccc(CN4CCC(Cc5ccccc5Cl)CC4)cc23)cc1 [C228; HCl]	≤ 5 µM	≤ 5 µM	≤ 5 µM
NCc1cc(-n2cc(-c3ccc(OC(F)(F)F)cc3)c3cc(CN4CCN(Cc5ccccc5Cl)CC4)ccc32)ccn1 [C229; Formic Acid]	≤ 5 µM	≤ 5 µM	≤ 5 µM
FC(F)(F)Oc1ccc(-c2cn(CC3CCCNC3)c3ccc(CN4CCN(Cc5ccccc5Cl)CC4)cc23)cc1 (stereo not drawn) [C230; HCl]	≤ 5 µM	≤ 5 µM	≤ 5 µM
FC(F)(F)Oc1ccc(-c2cn(CC3CNCCO3)c3ccc(CN4CCN(Cc5ccccc5Cl)CC4)cc23)cc1 (stereo not drawn) [C231; HCl]	≤ 5 µM	≤ 5 µM	≤ 5 µM
Nc1ccc(Cn2cc(-c3ccc(OC(F)(F)F)cc3)c3cc(CN4CCN(Cc5ccccc5Cl)CC4)ccc32)cn1 [C232; Formic Acid]	≤ 5 µM	≤ 5 µM	≤ 5 µM

SMILES	EC50 [1]	EC50 [2]	EC50 [3]
NCCCn1cc(-c2ccc(OC(F)(F)F)cc2)c2cc(CN3CCC(NCC(F)(F)F)CC3)ccc21 [C233; HCl]	5 to 10 µM	≤ 5 µM	5 to 10 µM
NCCc1cccc(-n2cc(-c3ccc(OC(F)(F)F)cc3)c3cc(CN4CCN(Cc5ccccc5Cl)CC4)ccc32)c1 [C235; Formic Acid]	≤ 5 µM	≤ 5 µM	≤ 5 µM
NCCCn1cc(-c2ccc(OC(F)(F)F)cc2)c2cc(CN3CCC(Oc4cccc(Cl)c4)CC3)ccc21 [C236; HCl]	≤ 5 µM	≤ 5 µM	≤ 5 µM
NCc1cc(OC(F)(F)F)ccc1-c1cn(CC2CCNCC2)c2ccc(CN3CCN(Cc4ccccc4Cl)CC3)cc12 [C237; HCl]	≤ 5 µM	≤ 5 µM	≤ 5 µM
CNCc1cc(OC(F)(F)F)ccc1-c1cn(CCCN)c2ccc(CN3CCN(Cc4ccccc4Cl)CC3)cc12 [C238; HCl]	≤ 5 µM	≤ 5 µM	≤ 5 µM
NCCCn1cc(-c2ccc(OC(F)(F)F)cc2N)c2cc(CN3CCN(Cc4ccccc4Cl)CC3)ccc21 [C239; Formic Acid]	≤ 5 µM	≤ 5 µM	≤ 5 µM
COc1cc(CN2CCN(S(=O)(=O)c3ccc4c(c3)c(-c3ccc(OC(F)(F)F)cc3CN)cn4CCCN)CC2)cc(OC)c1 [C240; Formic Acid]	≤ 5 µM	≤ 5 µM	≤ 5 µM
NCCCn1cc(-c2ccc(OC(F)(F)F)cc2CN)c2cc(CN3CCC(Nc4ccccc4Cl)CC3)ccc21 [C241; HCl]	≤ 5 µM	≤ 5 µM	≤ 5 µM
NCCCn1cc(-c2ccc(OC(F)(F)F)cc2)c2cc(OC3CCN(Cc4ccccc4Cl)CC3)ccc21 [C242; HCl]	5 to 10 µM	5 to 10 µM	5 to 10 µM
NCCCn1cc(-c2ccc(OC(F)(F)F)cc2CN)c2cc(S(=O)(=O)N3CCN(Cc4ccccc4Cl)CC3)ccc21 [C245; Formic Acid]	≤ 5 µM	≤ 5 µM	≤ 5 µM
NCCCn1cc(-c2ccc(OC(F)(F)F)cc2)c2cc(Nc3ccc(Nc4ccccc4Cl)nc3)ccc21 [C246; Formic Acid]	10 to 30 µM	5 to 10 µM	5 to 10 µM
NCCCn1cc(-c2ccc(OC(F)(F)F)cc2CN)c2cc(CN3CCC(Nc4cccc(Cl)c4)CC3)ccc21 [C247; HCl]	≤ 5 µM	≤ 5 µM	≤ 5 µM
NCCCn1cc(-c2ccc(OC(F)(F)F)cc2CN)c2cc(CN3CCC4(CC3)CCN(Cc3ccccc3Cl)C4)ccc21 [C249; Formic Acid]	≤ 5 µM	≤ 5 µM	≤ 5 µM
NCCCn1cc(-c2ccc(OC(F)(F)F)cc2CN)c2cc(CN3CCC4(CCN(Cc5ccccc5Cl)CC4)C3)ccc21 [C250; HCl]	≤ 5 µM	≤ 5 µM	≤ 5 µM
CC(C)(N)CCCn1cc(-c2ccc(OC(F)(F)F)cc2CN)c2cc(CN3CCN(Cc4ccccc4Cl)CC3)ccc21 [C251; HCl]	≤ 5 µM	≤ 5 µM	≤ 5 µM
NCCCn1cc(-c2ccc(OC(F)(F)F)cc2CN)c2cc(CN3CCC(CC(F)(F)F)CC3)ccc21 [C252; HCl]	≤ 5 µM	≤ 5 µM	≤ 5 µM
NCCCn1cc(-c2ccc(OC(F)(F)F)cc2CN)c2cc(CN3CCC4(CCCN(Cc5ccccc5Cl)C4)CC3)ccc21 [C253; HCl]	≤ 5 µM	≤ 5 µM	≤ 5 µM
NCc1cc(OC(F)(F)F)ccc1-c1cn(C2CCNCC2)c2ccc(CN3CCN(Cc4ccccc4Cl)CC3)cc12 [C254; HCl]	≤ 5 µM	≤ 5 µM	≤ 5 µM
